Results on 17 compounds are retold here after US12037324B2, “Biarylmethyl heterocycles” (Université de Montréal, priority 2016, dated 2024).

Where two headings read alike, the source gives them in different places.

One test has as its target T1, AGTR1 (Homo sapiens, UniProt P30556).
T1 construct: host or cells: Pathunter CHO-K1 AGTR1 β-arrestin cell line (CHO-K1)
T1 sequence (P30556 1-359): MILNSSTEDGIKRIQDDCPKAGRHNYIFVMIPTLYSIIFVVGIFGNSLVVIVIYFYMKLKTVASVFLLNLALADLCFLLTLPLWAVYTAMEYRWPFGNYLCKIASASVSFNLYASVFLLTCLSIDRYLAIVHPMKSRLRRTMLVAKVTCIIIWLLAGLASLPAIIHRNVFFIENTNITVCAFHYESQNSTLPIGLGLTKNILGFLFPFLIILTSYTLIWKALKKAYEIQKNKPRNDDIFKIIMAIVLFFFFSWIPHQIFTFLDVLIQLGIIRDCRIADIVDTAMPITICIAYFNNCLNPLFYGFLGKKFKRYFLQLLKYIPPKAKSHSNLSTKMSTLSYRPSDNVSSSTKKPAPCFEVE
Description: DiscoveRx β-arrestin2 recruitment assay (enzyme complementation, Pathunter CHO-K1 AGTR1 β-arrestin cell line). In kind it is cell-based. In a few lines:
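Chemiluminescent enzyme-complementation read-out of β-arrestin2 recruitment to AGTR1 in engineered CHO-K1 cells after 90 min compound exposure at 37° C. Values are 4-parameter logistic EC50s in agonist mode, IC50s in antagonist mode, with efficacy relative to the maximal All response.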

For test [1], the target named is T2, hAT1R (Homo sapiens, UniProt P30556).
T2 sequence (P30556 1-359): T1 sequence (P30556 1-359)
Kind of test: cell-based. As to conditions: agonist mode; for EC50: read-out: BRET P63 EC50.

Test [2] deals with T2, hAT1R. Description: BRET Gq biosensor assay, agonist response, HEK293 cells. It is filed as cell-based. As to conditions: section of the 42nd table directly before the BRET P63 section. In short, it runs like this: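 Agonist EC50 derived from a 4-parameter fit of BRET2 ratio (GFP 515 nm/Rluc 410 nm), scaled between unstimulated control and maximal AngII response. Readings taken 5 min after compound addition at room temperature, with 2 μM coelenterazine, in HEK293 cells expressing hAT1R, Gαq-Rluc, Gβ1 and GFP-Gγ1 (transfected two days earlier).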

Test [3] deals with T2, hAT1R. Kind of test: cell-based. To be noted: section of the 42nd table ending at r951, example numbering restarts after the DiscoveRx section; read-out: β-arrestin2 EC50.
The target of test [4] is T2, hAT1R. Kind of test: BRET β-arrestin2 biosensor assay, higher receptor expression (hAT1R 5 ng/well), HEK293 cells. It is filed as cell-based. As to conditions: for EC50: High AT1R Expression.
Setting [5] is: DiscoveRx β-arrestin2 recruitment.
Setting [6] is: DiscoveRx β-arrestin2 recruitment, maximal response.

For `CCOc1nc2cccc(C(=O)O)c2n1Cc1ccc(-c2cc(Oc3cccc(OC(F)(F)F)c3)ccc2-c2nn[nH]n2)cc1` [Example 335], the EC50 on AGTR1 (setting [5]) was 36.1 nM; at hAT1R [1], more than 10000 nM; on hAT1R [2], 721 nM; at hAT1R [3], 6 nM. The “DiscoveRx β-arrestin2 Ymax (%)” value on AGTR1 (setting [6]) came out at 22.7%.
Consider `CCc1nc2c(C)cc(C)nc2n1Cc1ccc(-c2cc(-c3ccccc3)ccc2-c2nn[nH]n2)c(F)c1` [Example 265], for which the EC50 on AGTR1 (setting [5]) came out at 30.1 nM; at hAT1R [1], 7 nM; on hAT1R [2], 29.2 nM; at hAT1R [3], 18.9 nM. Moreover, the “DiscoveRx β-arrestin2 Ymax (%)” value at AGTR1 (setting [6]) is reported as 53.4%. The “BRET P63 Ymax” value on hAT1R [1] was found to be 17.9%.
Turning to `CCOc1nc2cccc(C(=O)O)c2n1Cc1ccc(-c2cc(-c3ccccn3)ccc2-c2noc(=O)[nH]2)cc1` [Example 303], the EC50 was found to be 42.3 nM on AGTR1 (setting [5]), 49.7 nM on hAT1R [1], 109 nM on hAT1R [2] and 38.2 nM on hAT1R [3]. Also, the “DiscoveRx β-arrestin2 Ymax (%)” value at AGTR1 (setting [6]) was 58.9%. At hAT1R [1], the “BRET P63 Ymax” value was found to be 30.4%.
Consider `CCOc1nc2cccc(C(=O)O)c2n1Cc1ccc(-c2cc(-n3cnc4ccccc43)ccc2-c2nn[nH]n2)cc1` [Example 339], for which the EC50 on AGTR1 (setting [5]) was 10.6 nM; on hAT1R [1] it was more than 10000 nM; on hAT1R [2], 52.1 nM; on hAT1R [3] it was 12.8 nM. Further, the “DiscoveRx β-arrestin2 Ymax (%)” value on AGTR1 (setting [6]) came out at 58.0%.
On to `CCOc1nc2cccc(C(=O)O)c2n1Cc1ccc(-c2cc(Oc3cccc(F)c3)ccc2-c2nn[nH]n2)cc1` [Example 331], for which the EC50 on AGTR1 (setting [5]) was 13.2 nM; at hAT1R [1], more than 10000 nM; at hAT1R [2], 26.4 nM; on hAT1R [3], 8.4 nM. Besides, on AGTR1 (setting [6]), the “DiscoveRx β-arrestin2 Ymax (%)” value was 44.5%.
For the compound `CCOc1nc2cccc(C(=O)O)c2n1Cc1ccc(-c2cc(-c3cc(N(C)C)ccn3)ccc2-c2noc(=O)[nH]2)cc1` [Example 305], the EC50 at AGTR1 (setting [5]) was determined as 25.5 nM; on hAT1R [1] it was 67 nM; on hAT1R [2], 82.9 nM; at hAT1R [3], 90.3 nM. Moreover, the “DiscoveRx β-arrestin2 Ymax (%)” value at AGTR1 (setting [6]) was found to be 69.3%. Further, the “BRET P63 Ymax” value at hAT1R [1] was determined as 24.3%.
On to `CCOc1nc2cccc(C(=O)O)c2n1Cc1ccc(-c2cc(Oc3cccnc3)ccc2-c2nn[nH]n2)cc1` [Example 333], for which the EC50 on AGTR1 (setting [5]) was 10 nM; on hAT1R [1], more than 10000 nM; at hAT1R [2], 17.8 nM; on hAT1R [3] it was 11.3 nM. Further, the “DiscoveRx β-arrestin2 Ymax (%)” value on AGTR1 (setting [6]) turned out to be 67.8%.
Take `CCCCC(=O)N(Cc1ccc(-c2cc(-c3ccccn3)ccc2-c2nn[nH]n2)cc1)[C@H](C(=O)O)C(C)C` [Example 443, (S)-3-Methyl-2-(N-((5′-(pyridin-2-yl)-2′-(2H-tetrazol-5-yl)-[1,1′-biphenyl]-4-yl)methyl)pentanamido)butanoic]: the “DiscoveRx β-arrestin2 Ymax (%)” value on AGTR1 (setting [5]) turned out to be 36.5%. Also, the EC50 amounted to 124 nM on AGTR1 (setting [5]), 153 nM at hAT1R [4], 365 nM at hAT1R [1] and 77.1 nM on hAT1R [2]. In addition, on hAT1R [4], the “BRET β-Arrestin2 High AT1R Expression Ymax (%)” value is on record as 83.9%. Further, the “BRET P63 Ymax” value at hAT1R [1] came to 4.5%.
As for `CCCCC(=O)N(Cc1ccc(-c2cc(-c3cccc(OC)n3)ccc2-c2nn[nH]n2)cc1)[C@H](C(=O)O)C(C)C` [Example 446], at AGTR1 (setting [5]), the “DiscoveRx β-arrestin2 Ymax (%)” value was 29.8% and the EC50 was determined as 179 nM. At hAT1R [4], the “BRET β-Arrestin2 High AT1R Expression Ymax (%)” value is 84.3% and the EC50 came out at 144 nM. Besides, on hAT1R [1], the “BRET P63 Ymax” value was found to be 4.5% and the EC50 amounted to 668 nM. Further, the EC50 at hAT1R [2] is more than 100000 nM.
Consider `CCCCC(=O)N(Cc1ccc(-c2cc(-c3ccccc3)ccc2-c2nn[nH]n2)cc1)C1(C(=O)O)CCN(c2ccccc2)CC1` [Example 298, 4-(N-((6′-(2H-Tetrazol-5-yl)-[1,1′:3′,1″-terphenyl]-4-yl)methyl)pentan-amido)-1-phenylpiperidine-4-carboxylic acid], for which the EC50 is 278 nM at AGTR1 (setting [5]), 270 nM at hAT1R [4], more than 100000 nM on hAT1R [1] and 958 nM at hAT1R [2]. Moreover, the “DiscoveRx β-arrestin2 Ymax (%)” value at AGTR1 (setting [6]) stood at 31.3%. Moreover, at hAT1R [4], the “BRET β-Arrestin2 High AT1R Expression Ymax (%)” value stood at 68.8%.
On to `CCCCC(=O)N(Cc1ccc(-c2cc(Nc3ccccc3)ccc2-c2nn[nH]n2)cc1)[C@H](C(=O)O)C(C)C` [Example 449], for which, at AGTR1 (setting [5]), the “DiscoveRx β-arrestin2 Ymax (%)” value was determined as 17.8%. The EC50 was 263 nM on AGTR1 (setting [5]), 345 nM on hAT1R [4], more than 100000 nM on hAT1R [1] and more than 100000 nM on hAT1R [2]. For the same compound, the “BRET β-Arrestin2 High AT1R Expression Ymax (%)” value at hAT1R [4] is recorded as 30.1%.
Consider `CCCCC(=O)N(Cc1ccc(-c2cc(-c3cccc(C)n3)ccc2-c2nn[nH]n2)cc1)[C@H](C(=O)O)C(C)C` [Example 444], for which, on AGTR1 (setting [5]), the “DiscoveRx β-arrestin2 Ymax (%)” value worked out at 36.3%. The EC50 on AGTR1 (setting [5]) was 125 nM; on hAT1R [4] it was 147 nM; on hAT1R [1], more than 100000 nM; at hAT1R [2], 258 nM. Further, the “BRET β-Arrestin2 High AT1R Expression Ymax (%)” value at hAT1R [4] was determined as 46.5%.
Take `CCCCC(=O)N(Cc1ccc(-c2cc(-c3cccc(C)n3)ccc2-c2nn[nH]n2)cc1)C1(C(=O)O)CCCCC1` [Example 294]: the EC50 on AGTR1 (setting [5]) was 87.3 nM; at hAT1R [4] it was 150 nM; on hAT1R [1], more than 100000 nM; on hAT1R [2] it was 427 nM. In addition, on AGTR1 (setting [6]), the “DiscoveRx β-arrestin2 Ymax (%)” value is 28.9%. Moreover, the “BRET β-Arrestin2 High AT1R Expression Ymax (%)” value at hAT1R [4] was determined as 24.7%.
Consider `CCCCc1nc(Cl)c(C(=O)O)n1Cc1ccc(-c2cc(-c3cccc4[nH]ccc34)ccc2-c2nn[nH]n2)cc1` [Example 392, 1-((5′-(1H-indol-4-yl)-2′-(2H-tetrazol-5-yl)-1,1,1′-biphenyll-4-yl)methyl)-2-butyl-4-chloro-1H-imidazole-5-carboxyimc acid], for which the EC50 was 45.2 nM on AGTR1 (setting [5]), 17.2 nM on hAT1R [4], more than 100000 nM at hAT1R [1] and 3320 nM on hAT1R [2]. Also, on AGTR1 (setting [6]), the “DiscoveRx β-arrestin2 Ymax (%)” value was found to be 29.2%. For the same compound, on hAT1R [4], the “BRET β-Arrestin2 High AT1R Expression Ymax (%)” value was 79.1%.
Turning to `CCCCC1=NC2(CCCC2)C(=O)N1Cc1ccc(-c2cc(Oc3cc(C)ccn3)ccc2-c2nn[nH]n2)cc1` [Example 455], the EC50 was more than 100000 nM at AGTR1, 46.8 nM at AGTR1 (setting [5]), 93.8 nM at hAT1R [2] and 182 nM at hAT1R [3]. Moreover, the “DiscoveRx β-arrestin2 Ymax (%)” value at AGTR1 (setting [5]) is on record as 14.4%.
For the compound `CCCCC(=O)N(Cc1ccc(-c2cc(-c3ccccn3)ccc2-c2nn[nH]n2)cc1)C1(C(=O)O)CCCCC1` [Example 293, 1-(N-((5′-(Pyridin-2-yl)-2′-(2H-tetrazol-5-yl)-[1,1′-biphenyl]-4-yl)methyl)pentanamido)cyclohexanecarboxylic acid], the EC50 on AGTR1 (setting [5]) is 187 nM; at hAT1R [4], 136 nM; on hAT1R [1] it was more than 100000 nM; on hAT1R [2], 1240 nM. For the same compound, the “DiscoveRx β-arrestin2 Ymax (%)” value at AGTR1 (setting [6]) came to 40.4%. Besides, the “BRET β-Arrestin2 High AT1R Expression Ymax (%)” value at hAT1R [4] is given as 70.2%.
For the compound `CCCCC(=O)N(Cc1ccc(-c2cc(N3CCCC(C)C3)ccc2-c2nn[nH]n2)cc1)[C@H](C(=O)O)C(C)C` (stereo partly drawn) [Example 448], the “DiscoveRx β-arrestin2 Ymax (%)” value on AGTR1 (setting [5]) is reported as 20.8%. Moreover, the EC50 at AGTR1 (setting [5]) is 161 nM; on hAT1R [4] it was 599 nM; on hAT1R [1] it was more than 100000 nM; at hAT1R [2], 856 nM. In addition, the “BRET β-Arrestin2 High AT1R Expression Ymax (%)” value at hAT1R [4] was found to be 58.5%.
